From patent US20250221996A1, “HETEROCYCLIC COMPOUNDS, COMPOSITIONS THEREOF, AND METHODS OF TREATMENT THEREWITH” (BeiGene, Ltd., priority 2022, published 2025)

System: pERK1/2(THR202/TYR204) level in AsPC-1 cells
Experiment: pERK assay (HTRF) in AsPC-1 cell line
Format: cell-based
Settings: 2 h compound treatment
How it was run: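 AsPC-1 (KRAS G12D) cells, 30000/well, seeded overnight, then treated 2 h with a 10-point series at 0 to 10 μM final. Lysate pERK1/2 (Thr202/Tyr204) detected by HTRF after overnight antibody incubation at room temperature; IC50 from percent inhibition versus log concentration.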

Row | Structure (SMILES) | IC50 [nM] | IC50 (Homo sapiens, ASPC1, 2 h) [nM]
1 | COC1(COc2nc(N3CC4CCC(C3)N4)c3cc(C(F)(F)F)c(-c4ccc(F)c5sc(N)c(C#N)c45)c(F)c3n2)CCOC1 (single isomer, unassigned) [Example 3-Isomer 3, 4-(4-(3,8-diazabicyclo[3.2.1]octan-3-yl)-8-fluoro-2-((3-methoxytetra hydrofuran-3-yl)methoxy)-6-(trifluoromethyl)quinazolin-7-yl)-2-amino-7-fluoro benzo[b]thiophene-3-carbonitrile] | 96 | 
2 | COC1(COc2nc(N3CC4CCC(C3)N4)c3cc(C(F)(F)F)c(-c4ccc(F)c5sc(N)c(C#N)c45)c(F)c3n2)CC1 [Example 45, 4-(4-(3,8-diazabicyclo[3.2.1]octan-3-yl)-8-fluoro-2-((1-methoxycyclopropyl)methoxy)-6-(trifluoromethyl)quinazolin-7-yl)-2-amino-7-fluorobenzo[b] thiophene-3-carbonitrile] |  | 115
3 | CC12CC(COc3nc(N4CC5CCC(C4)N5)c4cc(C(F)(F)F)c(-c5cc(O)cc6ccccc56)c(F)c4n3)(CO1)C2 [Example 29, 4-(4-(3,8-diazabicyclo[3.2.1]octan-3-yl)-8-fluoro-2-((1-methyl-2-oxabicyclo[2.1.1]hexan-4-yl)methoxy)-6-(trifluoromethyl)quinazolin-7-yl)naphthalen-2-ol] |  | > 10000
4 | N#Cc1c(N)sc2c(F)ccc(-c3c(C(F)(F)F)cc4c(N5CC6CCC(C5)N6)nc(OCC5(C#N)COC5)nc4c3F)c12 [Example 49, 3-(((7-(2-amino-3-cyano-7-fluorobenzo[b]thiophen-4-yl)-4-(3,8-diazabicyclo[3.2.1]octan-3-yl)-8-fluoro-6-(trifluoromethyl)quinazolin-2-yl)oxy)methyl)oxetane-3-carbonitrile] |  | 103
5 | N#Cc1c(N)sc2c(F)ccc(-c3c(C(F)(F)F)cc4c(N5C6CCC5CNC6)nc(OCC56COC(C5)C6)nc4c3F)c12 (single isomer, unassigned) [Example 9-Isomer 1, 4-(2-((2-oxabicyclo[2.1.1]hexan-4-yl)methoxy)-4-(3,8-diazabicyclo[3.2.1]octan-8-yl)-8-fluoro-6-(trifluoromethyl)quinazolin-7-yl)-2-amino-7-fluorobenzo[b]thiophene-3-carbonitrile] | > 10000 | 
6 | N#Cc1c(N)sc2c(F)ccc(-c3c(Cl)cc4c(N5C6CCC5CNC6)nc(OCC56COC(C5)C6)nc4c3F)c12 (single isomer, unassigned) [Example 5-Isomer 2, 4-(2-((2-oxabicyclo[2.1.1]hexan-4-yl)methoxy)-4-(3,8-diazabicyclo [3.2.1]octan-8-yl)-6-chloro-8-fluoroquinazolin-7-yl)-2-amino-7-fluorobenzo[b]thio phene-3-carbonitrile] |  | 44
7 | N#Cc1c(N)sc2c(F)ccc(-c3c(C(F)(F)F)cc4c(N5CC6CCC(C5)N6)nc(OCC5(C(F)F)CCOCC5)nc4c3F)c12 [Example 43, 4-(4-(3,8-diazabicyclo[3.2.1]octan-3-yl)-2-((4-(difluoromethyl)tetrahydro-2H-pyran-4-yl)methoxy)-8-fluoro-6-(trifluoromethyl)quinazolin-7-yl)-2-amino-7-fluorobenzo[h]thiophene-3-carbonitrile] |  | 479
8 | COC1(COc2nc(N3CC4CCC(C3)N4)c3cc(C(F)(F)F)c(-c4ccc(F)c5sc(N)c(C#N)c45)c(F)c3n2)COC1 [Example 28, 4-(4-(3,8-diazabicyclo[3.2.1]octan-3-yl)-8-fluoro-2-((3-methoxyoxetan-3-yl)methoxy)-6-(trifluoromethyl)quinazolin-7-yl)-2-amino-7-fluorobenzo[b]thiophene-3-carbonitrile] |  | 78
9 | COCC12CC(COc3nc(N4CC5CCC(C4)N5)c4cc(C(F)(F)F)c(-c5ccc(F)c6sc(N)c(C#N)c56)c(F)c4n3)(C1)C(C)(C)O2 [Example 56, 4-(4-(3,8-diazabicyclo[3.2.1]octan-3-yl)-8-fluoro-2-((1-(methoxymethyl)-3,3-dimethyl-2-oxabicyclo[2.1.1]hexan-4-yl)methoxy)-6-(trifluoromethyl)quinazolin-7-yl)-2-amino-7-fluorobenzo[b]thiophene-3-carbonitrile] |  | 109
10 | N#Cc1c(N)sc2c(F)ccc(-c3c(Cl)cc4c(N5CC6CCC(C5)N6)nc(OCC56COC(C5)C6)nc4c3F)c12 (single isomer, unassigned) [Example 2-Isomer 1, 4-(2-((2-oxabicyclo[2.1.1]hexan-4-yl)methoxy)-4-(3,8-diazabicyclo[3.2.1]octan-3-yl)-6-chloro-8-fluoroquinazolin-7-yl)-2-amino-7-fluorobenzo[b]thio phene-3-carbonitrile] | 160 | 
11 | N#Cc1c(N)sc2c(F)ccc(-c3c(C(F)(F)F)cc4c(N5CC6CCC(C5)N6)nc(OCC5(C#N)CCOC5)nc4c3F)c12 (single isomer, unassigned) [Example 10-Isomer 1, 3-(((7-(2-amino-3-cyano-7-fluorobenzo[b]thiophen-4-yl)-4-(3,8-diazabicyclo[3.2.1]octan-3-yl)-8-fluoro-6-(trifluoromethyl)quinazolin-2-yl)oxy)methyl)tetrahydrofuran-3-carbonitrile] | > 10000 | 
12 | CC(=O)N1CC(F)(COc2nc(N3CC4CCC(C3)N4)c3cc(C(F)(F)F)c(-c4ccc(F)c5sc(N)c(C#N)c45)c(F)c3n2)C1 [Example 36, 4-(2-((1-acetyl-3-fluoroazetidin-3-yl)methoxy)-4-(−3,8-diazabicyclo[3.2.1]octan-3-yl)-8-fluoro-6-(trifluoromethyl)quinazolin-7-yl)-2-amino-7-fluorobenzo[b]thiophene-3-carbonitrile] |  | 250
13 | N#Cc1c(N)sc2c(F)ccc(-c3c(C(F)(F)F)cc4c(N5CC6CCC(C5)N6)nc(OCC5(C#N)CCOC5)nc4c3F)c12 (single isomer, unassigned) [Example 10-Isomer 2, 3-(((7-(2-amino-3-cyano-7-fluorobenzo[b]thiophen-4-yl)-4-(3,8-diazabicyclo[3.2.1]octan-3-yl)-8-fluoro-6-(trifluoromethyl)quinazolin-2-yl)oxy)methyl)tetrahydrofuran-3-carbonitrile] | > 10000 | 
14 | COC1(COc2nc(N3CC4CCC(C3)N4)c3cc(C(F)(F)F)c(-c4ccc(F)c5sc(N)c(C#N)c45)c(F)c3n2)CCOC1 (single isomer, unassigned) [Example 3-Isomer 4, 4-(4-(3,8-diazabicyclo[3.2.1]octan-3-yl)-8-fluoro-2-((3-methoxytetra hydrofuran-3-yl)methoxy)-6-(trifluoromethyl)quinazolin-7-yl)-2-amino-7-fluoro benzo[b]thiophene-3-carbonitrile] | 273 | 
15 | N#Cc1c(N)sc2c(F)ccc(-c3c(C(F)(F)F)cc4c(N5CC6CCC(C5)N6)nc(OCC56CCC(C5)OC6)nc4c3F)c12 (stereo not drawn) [Example 7, 4-(2-((2-oxabicyclo[2.2.1]heptan-4-yl)methoxy)-4-(3,8-diazabicyclo[3.2.1]octan-3-yl)-8-fluoro-6-(trifluoromethyl)quinazolin-7-yl)-2-amino-7-fluorobenzo[b]thiophene-3-carbonitrile] |  | 112
